In assay [1] the target is Human Serum Albumin (Homo sapiens, UniProt P02768). Briefly: Binding fluorimetric assay (tryptophan quenching). The note with it: fixed concentration of HSA titrated with different amounts of compound. The procedure: The solutions were mixed and after allowing 30 minutes at room temperature to reach the equilibrium conditions, the spectra were recorded. […] The percentages obtained were plotted against the concentrations used and the KD values were calculated using GraphPad software (version 5.0).

Assay [2] relates to Acinetobacter baumannii AC-54/97 (IMP-2). Briefly: Antimicrobial susceptibility testing, MIC by microdilution broth method. The class given is cell-based. To be noted: Acinetobacter baumannii AC-54/97 (IMP-2), Tables 2 and 3. As for the experimental part:
(§1) Bacterial strains were obtained from the ATCC or CCUG culture collections or present in the authors' collection of clinical isolates. Compounds were re-suspended in dimethyl sulfoxyde (DMSO) at a final concentration of 10 mg/ml and subsequently diluted in the culture medium. The minimum inhibitory concentrations (MICs) of the compounds of the invention were determined using the microdilution broth method using Mueller-Hinton broth as recommended by the Clinical Laboratory Standards Institute (CLSI [11]). Bacterial inoculum was 5×10^4 CFU/well. MICs were recorded after 18-24 hours incubation at 35-37° C.
(§2) The Antibacterial activity of compound 28 was also tested on a panel of Gram-negative and Gram-positive clinical isolates, showing various antimicrobial susceptibility profiles (Table 4). The class of drugs for which the isolate was resistant to is indicated in column 2 (PEN, penicillins; ES-CEPH, expanded-spectrum cephalosporins; CARB, carbapenems; AZT; aztreonam; AG, aminoglycosides; FQ, fluoroquinolones; SXT, trimethoprim/sulfamethoxazole; FOS, fosfomycin; GLY, glycopeptides; LNZ, linezolid; COL-R, colistin resistant; COL-S colistin sensitive; PDR, poly-drug resistant).

The test system of assay [3] is Acinetobacter baumannii ATCC 17978. The assay is described as above. The class given is cell-based. To be noted: 18-24 hours at 35-37° C. The procedure: as §1
The test system of assay [4] is Burkholderia cepacia RII. The assay is described as above. The class given is cell-based. To be noted: Mueller-Hinton broth, 18-24 hours at 35-37° C. As for the experimental part: as §1
Assay [5] has as its system Alcaligenes faecalis 424/98. Described as above. The class given is cell-based. To be noted: Mueller-Hinton broth, 18-24 hours at 35-37° C. As for the experimental part: as §1
The subject of assay [6] is Stenotrophomonas maltophilia 634/08. Described as above. The class given is cell-based. To be noted: Mueller-Hinton broth, 18-24 hours at 35-37° C. As for the experimental part:
as §1

Assay [7] has as its system Achromobacter xylosoxidans AX 22. The description is as above. The class given is cell-based. To be noted: 18-24 hours at 35-37° C. The procedure: as §1
Assay [8] deals with Escherichia coli CCUG^T. Described as above. The class given is cell-based. The note with it: Mueller-Hinton broth, 18-24 hours at 35-37° C. As for the experimental part:
as §1

Assay [9] relates to Chryseobacterium meningosepticum CCUG 4310. The assay is described as above. The class given is cell-based. The note with it: 18-24 hours at 35-37° C. The procedure: as §1
The test system of assay [10] is Bacillus subtilis ATCC 6633. The description is as above. The class given is cell-based. The note with it: 18-24 hours at 35-37° C. The procedure: as §1
In assay [11] the test system is Pseudomonas aeruginosa ATCC 27853. The description is as above. The class given is cell-based. To be noted: 18-24 hours at 35-37° C. The procedure:
as §1

The test system of assay [12] is Staphylococcus aureus ATCC 25923. The assay is described as above. To be noted: 18-24 hours at 35-37° C. The class given is cell-based. The procedure: as §1
Assay [13] has as its system Enterococcus faecalis ATCC 19433. The assay is described as above. To be noted: 18-24 hours at 35-37° C. The class given is cell-based. The procedure:
as §1

The subject of assay [14] is Klebsiella pneumoniae ATCC 13833. Described as above. The note with it: 18-24 hours at 35-37° C. The class given is cell-based. As for the experimental part: as §1
Assay [15] concerns Enterobacter cloacae VA-417/02 (VIM-4). The description is as above. The class given is cell-based. The note with it: Enterobacter cloacae VA-417/02 (VIM-4); Tables 2 and 3. The procedure:
as §1, §2

The subject of assay [16] is Klebsiella pneumoniae 081R. The description is as above. The class given is cell-based. To be noted: Tables 2 and 3. As for the experimental part:
as §1, §2

Assay [17] deals with Gram-positive and Gram-negative organisms. Briefly: Antimicrobial susceptibility testing, overall statements on the panel. The class given is cell-based. To be noted: overall comparison over the tested strains. The procedure:
as §1

Where [18] appears, read: ATCC17978, Mueller-Hinton broth, read-out: MIC.
The mark [19] stands for this setting: AX22, Mueller-Hinton broth, read-out: MIC.
[20] abbreviates: Elizabethkingia meningoseptica, CCUG4310, Mueller-Hinton broth, read-out: MIC.
[21] abbreviates: ATCC6633, Mueller-Hinton broth, read-out: MIC.
Where [22] appears, read: ATCC27853, Mueller-Hinton broth, read-out: MIC.
Where [23] appears, read: ATCC25923, Mueller-Hinton broth, read-out: MIC.
[24] abbreviates: ATCC19433, Mueller-Hinton broth, read-out: MIC.
Setting [25] is: ATCC13833, Mueller-Hinton broth, read-out: MIC.

Consider five compounds from patent publication US10004702B2, “Linear guanidine derivatives, methods of preparation and uses thereof” (LEAD DISCOVERY SIENA S.R.L., priority 2014, dated 2018).

The term MIC denotes the lowest concentration found to suppress growth.

The structures appear in SMILES notation. Converted amounts (≈) assume the structure as drawn. Like-named read-outs stand apart in the source and are kept apart here. Some results are limits rather than exact numbers.

Chain of Human Serum Albumin (P02768 25-609): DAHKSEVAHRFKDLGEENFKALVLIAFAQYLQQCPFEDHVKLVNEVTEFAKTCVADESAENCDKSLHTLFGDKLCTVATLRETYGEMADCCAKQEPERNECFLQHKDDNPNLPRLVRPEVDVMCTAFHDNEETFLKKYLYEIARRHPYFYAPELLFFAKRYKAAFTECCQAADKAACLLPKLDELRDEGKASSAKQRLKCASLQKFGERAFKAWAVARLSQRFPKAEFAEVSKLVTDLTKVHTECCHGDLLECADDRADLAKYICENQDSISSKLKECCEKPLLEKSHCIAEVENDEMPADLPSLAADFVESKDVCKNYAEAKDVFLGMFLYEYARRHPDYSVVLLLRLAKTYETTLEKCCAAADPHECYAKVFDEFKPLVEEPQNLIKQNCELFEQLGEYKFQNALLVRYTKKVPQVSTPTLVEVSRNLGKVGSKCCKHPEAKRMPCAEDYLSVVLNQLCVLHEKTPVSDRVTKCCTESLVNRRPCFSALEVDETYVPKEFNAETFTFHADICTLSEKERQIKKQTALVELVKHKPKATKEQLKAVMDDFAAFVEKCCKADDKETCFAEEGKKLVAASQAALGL

With `NC(=O)N1c2ccccc2C=Cc2ccccc21` [CARBAMAZEPINE, Carbamazepine, reference compound], in assay [1], the “intrinsic fluorescence decrease of HSA” value is reported as “remarkable intrinsic fluorescence decrease”.
`N=C(N)NCCCCCCCCN(CCCCCCCCNC(=N)NCC1CC1)C(=O)NC(=N)NCCCCCCCCNCCCCCCCCNC(=N)NCC1CC1` [Compound 30, 1-(8-carbamimidamidooctyl)-1-[8-[[N-(cyclopropylmethyl)carbamimidoyl]amino]octyl]-3-[N-[8-[8-[[N-(cyclopropylmethyl)carbamimidoyl]amino]octylamino]octyl]carbamimidoyl]urea]: the MIC is 32 µg/mL (≈ 37.9 µM) in assay [2] (Acinetobacter baumannii, read-out: MIC); over 256 µg/mL in assay [3] (setting [18]); 128 µg/mL (≈ 151 µM) in assay [4] (read-out: MIC); 32 µg/mL (≈ 37.9 µM) in assay [5] (read-out: MIC); over 256 µg/mL in assay [6] (read-out: MIC); over 256 µg/mL in assay [7] (setting [19]). Moreover, the MIC was over 256 µg/mL in [8] (read-out: MIC); over 256 µg/mL in assay [9] (setting [20]); under 0.125 µg/mL in [10] (setting [21]); over 256 µg/mL in assay [11] (setting [22]); 4 µg/mL (≈ 4.73 µM) in assay [12] (setting [23]); 8 µg/mL (≈ 9.46 µM) in [13] (setting [24]). For the same compound, the MIC in [14] (setting [25]) was over 256 µg/mL.
Turning to `N=C(N)NCCCCCCN(CCCCCCNC(=N)NCC1CC1)C(=O)N(CCCCCCNC(=N)N)CCCCCCNC(=N)NCC1CC1` [Compound 31, 1,3-bis(6-(3-(cyclopropylmethyl)guanidino)hexyl)-1,3-bis(6-guanidinohexyl)urea], the MIC in assay [3] (setting [18]) is 128 µg/mL (≈ 175 µM); in [4] (read-out: MIC), over 256 µg/mL; in assay [5] (read-out: MIC), over 256 µg/mL; in assay [6] (read-out: MIC) it was over 256 µg/mL; in [7] (setting [19]) it was over 256 µg/mL; in assay [8] (read-out: MIC) it was 16 µg/mL (≈ 21.8 µM). In addition, the MIC in assay [9] (setting [20]) is over 256 µg/mL; in assay [10] (setting [21]), 4 µg/mL (≈ 5.46 µM); in assay [11] (setting [22]), 256 µg/mL (≈ 349 µM); in assay [12] (setting [23]) it was 4 µg/mL (≈ 5.46 µM); in assay [13] (setting [24]), 32 µg/mL (≈ 43.6 µM); in [14] (setting [25]), 32 µg/mL (≈ 43.6 µM).
With `N=C(N)NCCCCCCCCN(CCCCCCCCNC(=N)NCC1CC1)C(=O)N(CCCCCCCCNC(=N)NCC1CC1)CCCCCCCCNC(=N)NC(=O)NCCCCCCCCNCCCCCCCCNC(=N)NCC1CC1` [Compound 32, 1,3-bis(8-(3-(cyclopropylmethyl)guanidino)octyl)-1-(8-guanidinooctyl)-3-(8-((3-(8-((8-(3-(cyclopropylmethyl))guanidinooctyl)amino)octyl)carbamoyl)guanidino)octyl)urea], the MIC in assay [15] was found to be 16 µg/mL (≈ 12.9 µM); in assay [16], 16 µg/mL (≈ 12.9 µM); in assay [2], 16 µg/mL (≈ 12.9 µM); in assay [3] (Mueller-Hinton broth), 32 µg/mL (≈ 25.8 µM); in assay [4] it was 128 µg/mL (≈ 103 µM); in [5], 32 µg/mL (≈ 25.8 µM). For the same compound, the MIC in assay [6] was 64 µg/mL (≈ 51.7 µM); in assay [7] (Mueller-Hinton broth), 64 µg/mL (≈ 51.7 µM); in [8] it was 8 µg/mL (≈ 6.46 µM); in assay [9] (Mueller-Hinton broth), 64 µg/mL (≈ 51.7 µM); in assay [10] (Mueller-Hinton broth), 8 µg/mL (≈ 6.46 µM); in assay [11] (Mueller-Hinton broth), 32 µg/mL (≈ 25.8 µM). For the same compound, the MIC is 8 µg/mL (≈ 6.46 µM) in assay [12] (Mueller-Hinton broth), under 0.125 µg/mL in [13] (Mueller-Hinton broth) and 8 µg/mL (≈ 6.46 µM) in [14] (Mueller-Hinton broth). The “antimicrobial spectrum (in words)” value in assay [17] is “active against both Gram-positive and Gram-negative organisms”.
In the case of `N=C(N)NCCCCCCN(CCCCCCNC(=N)NCC1CC1)C(=O)NC(=N)NCCCCCCNCCCCCCNC(=N)NCC1CC1` [Compound 33, 1-(6-carbamimidamidohexyl)-1-[6-[[N-(cyclopropylmethyl)carbamimidoyl]amino]hexyl]-3-[N-[6-[6-[[N (cyclopropylmethyl)carbamimidoyl]amino]hexylamino]hexyl]carbamimidoyl]urea], the MIC in [15] is 64 µg/mL (≈ 87.3 µM); in assay [2], 8 µg/mL (≈ 10.9 µM); in [3] (Mueller-Hinton broth), 256 µg/mL (≈ 349 µM); in [4], over 256 µg/mL; in [5], over 256 µg/mL; in assay [6] it was over 256 µg/mL. In addition, the MIC in assay [7] (Mueller-Hinton broth) is over 256 µg/mL; in [8] it was 32 µg/mL (≈ 43.6 µM); in assay [9] (Mueller-Hinton broth), over 256 µg/mL; in assay [10] (Mueller-Hinton broth), 8 µg/mL (≈ 10.9 µM); in assay [11] (Mueller-Hinton broth), over 256 µg/mL; in [12] (Mueller-Hinton broth), 16 µg/mL (≈ 21.8 µM). In addition, the MIC in assay [13] (Mueller-Hinton broth) worked out at 32 µg/mL (≈ 43.6 µM); in [14] (Mueller-Hinton broth), 64 µg/mL (≈ 87.3 µM).
